Earlier results as cited in patent US8859603B2, “Method for solubilizing metronidazole” (Galderma S.A., priority 2004, dated 2014).

Details: no solubilizer

## Cc1ncc([N+](=O)[O-])n1CCO [metronidazole, 1-(2-hydroxyethyl)-2-methyl-5-nitroimidazole]
  intrinsic solubility of metronidazole in an aqueous phase: ~0.9 % (m/m)
